Here are results for 24 compounds from patent US9856256B2, “Pyridino[1,2-A]pyrimidone analogue used as P13K inhibitor” (CHIA TAI TIANQING PHARMACEUTICAL GROUP CO., LTD., priority 2014, dated 2018).

Assay [1] concerns MCF-7 cells. Kind of assay: In vitro cell activity assay (MCF-7, insulin stimulation, ELISA-One). It counts as cell-based. Conditions: Homo sapiens, MCF7, compound 2 hours in serum-free media, then 10 μg/ml insulin 30 min. As for the experimental part: Experimental Steps and Method Comprise:
1. MCF-7 cells were seeded at 2,5000 cells per well in a 96 well tissue culture plate in a complete media containing 10%0/FBS.
3. The cells were treated with 10 μg/ml insulin in serum-free media for 30 min.
4. During waiting period, lysis solution was prepared as below:
a) Enhancer Solution needs to be taken out from the refrigerator to be thawed.
b) Concentrated lysis solution was prepared by diluting Enhancer Solution 10-fold in 5× Lysis Buffer.
c) Lysis solution was prepared by diluting concentrated lysis solution 5-fold with ddH2O.
5. Any media were removed from wells and the wells were rinsed with PBS once quickly.
6. 50 μL of freshly prepared lysis solution were added into each well, with shaking at room temperature for 10 min.
7. After confirming that all cells get detached from wells, the lysis solution together with the cell debris was transferred to 1.5 ml tubes.
8. The tubes were vortexed several times to thoroughly mix the lysis solution and cells, and then, and then the mixture was centrifuged at 12,000 g for 10 min at 4° C.;
9. The desired number of ELISA-One microplate strips was determined. Unused strips were removed from frame and returned to storage pouch and seal. Wells for use in the assay were rinsed with 200 μL ddH2O to remove preservatives prior to use.
10. 50 μL of antibody mixture solution was added into each well. (Antibody mixture solution was prepared by mixing capture antibody reagent and detection antibody reagent equally, avoid vortexing)
11. 25 μL of lysate was added into each well of the ELISA-One microplate. The microplate was covered with adhesive seal and incubated for 1 hour at room temperature on a microplate shaker.
12. Each well was washed with 150 μL 1× wash buffer 3 times. After final wash, any remaining wash buffer was removed from wells. If necessary, leave microplate in 1× Wash Buffer for up to 30 min, until substrate mixture solution has been prepared.
13. The substrate mixture solution should be prepared when used, 100 μL of substrate mixture solution was added into each well, and then the microplate was sealed with tin foil and incubated at room temperature for 10 minutes on a microplate shaker.
14. 10 μL of stop solution was added into each well, and then mixed slightly (5-10 seconds) on a microplate shaker.
15. Corresponding ELISA-One filter set was installed to read the fluorescence signal intensity.
Background: An ELISA detects its analyte on a solid surface through an enzyme-linked reagent.

The target of assay [2] is T1, PI3K (p110α) (Homo sapiens, UniProt P42336). Nature of the assay: In vitro enzyme activity assay, PI3K (p110α) kinase, Method I (HTRF). It counts as biochemical. Also on record: recombinant full-length human PI3K p110α subunit; His-tag (N); host or cells: insect cells. Conditions: 10 μM PI(4,5)P2 and 10 μM ATP), read-out: PI3K (p110α) enzyme activity_IC50. As to the method: (§1) PI3K (p110α) kinase activities of the compounds in all the examples of the present invention were tested via the following two methods, respectively.
Reaction buffer: HEPES 50 mM (pH7.0), NaN3 0.02%, BSA 0.01%. Orthovanadate 0.1 mM, and 1% DMSO.
Detection buffer: HEPES 10 mM (pH7.0), BSA 0.02%, KF 0.16 M, and EDTA 4 mM.
Enzymes for reaction: recombinant full-length human PI3K p110α subunit (molecular weight=128.4 kDa) with a His-tag at the N-terminus and unlabeled p85α subunit (molecular weight=83.6 kDa), which were expressed in insect cells.
Substrate for reaction: […] PIP2 substrate (PI(4,5)P2).
Reaction conditions: 10 μM PI(4,5)P2 and 10 μM ATP.
1. preparing the substrate in the freshly prepared reaction buffer;
(§2) 2. adding the kinase into the substrate reaction solution, and mixing gently;
3. transferring the compound dissolved in 100% DMSO into the kinase reaction solution by using Acoustic technique (Echo550; nanoliter rang), and incubating at room temperature for 10 minutes;
4. adding an appropriate concentration of ATP into the reaction system,
5. incubating at 30° C. for half an hour;
6. terminating the reaction by adding a stop solution;
7. adding the detection buffer and incubating overnight; and
8. detecting by using homogeneous time-resolved fluorescence (HTRF) method (excitation wavelength of 320 nm, measuring the ratio of the emission wavelength readings at 615 nm and 665 nm).
A general note: In TR-FRET formats the signal depends on donor and acceptor labels being close together.

Assay [3] addresses T2, mTOR (Homo sapiens, UniProt P42345).
T2 construct: recombinant human mTOR fragment (amino acid 1360-2549, molecular weight=163.9 kDa); GST-tag (N); host or cells: insect cells
Nature of the assay: In vitro enzyme activity assay, mTOR kinase (32P-ATP, P81 filter-binding). It counts as biochemical. Conditions: 4EBPI substrate, 10 μM ATP; read-out: mTOR enzyme activity_IC50. As to the method:
mTOR kinase activities of the compounds in all the examples of the present invention were tested via the following method.
Reaction buffer: 20 mM Hepes (pH 7.5), 10 mM MgCl2, 2 mM MnCl2, 1 mM EGTA, 0.02% Brij35, 0.02 mg/mL BSA, 0.1 mM Na3VO4, 2 mM DTT, and 2% DMSO.
Enzyme for reaction: recombinant human mTOR fragment (amino acid 1360-2549, molecular weight=163.9 kDa) with a GST-tag at the N-terminus, which was expressed in insect cells.
Substrate for reaction: recombinant full-length human 4EBPI (molecular weight=13.6 kDa) with a His-tag at the N-terminus, which was expressed in bacteria.
Reaction conditions: […] 4EBPI and 10 μM ATP.
1. adding the reaction substrate and other reaction factors into the freshly prepared reaction buffer;
as §2
3. transferring the compound dissolved in 100% DMSO into the kinase reaction solution by using Acoustic technique (Echo550; nanoliter rang), and incubating at room temperature for 20 minutes;
4. adding an appropriate concentration of ^32P-ATP into the reaction system;
5. incubating at room temperature for 2 hours;
6. detecting the kinase activity by using P81 filter-binding method.

Assay [4] concerns the target T1, PI3K (p110α). Nature of the assay: In vitro enzyme activity assay, PI3K (p110α) kinase, Method II (ADP-Glo assay). Also on record: purchased Millipore 14-602-K. Conditions: read-out: PI3K (p110α) enzyme activity_IC50. It counts as biochemical. As to the method:
as §1
Dilution of the Compound:
The compound to be tested was diluted with a 3-fold concentration gradient, and 10 concentrations (from 10000 nM to 0.5 nM) were obtained in total.
50 nL of the compound was transferred to a reaction plate (PerkinElmer #6007299) and 3 μL of enzyme/substrate mixture (0.33 nM PI3Kalpha, Millipore #14-602-K/166.5 μM PIP2) was added. After 20 min incubation, 2 uL of ATP solution (100 uM) was added to initiate the reaction. After reacting for 2 hours at room temperature, 5 μL of ADP-Glo reagent was added to terminate the kinase reaction. Then the mixture was incubated at room temperature for 60 min to completely digest the remaining unreacted ATP, 10 uL of kinase detection reagent was added, and after 40 min incubation at room temperature, […] was readed on an Envision. PIP2, ATP, ADP-Glo and the kinase detection reagent were all from ADP-Glo kinase assay kit (Promega #V1792).
IC50 was calculated using standard 4-parameter fit method (Model205, XL-fit, iDBS).
(ADP-Glo first removes unused ATP, then detects ADP through luciferase.)

Structures are written as SMILES. Some results are limits rather than exact numbers.

T1 sequence (P42336 whole entry): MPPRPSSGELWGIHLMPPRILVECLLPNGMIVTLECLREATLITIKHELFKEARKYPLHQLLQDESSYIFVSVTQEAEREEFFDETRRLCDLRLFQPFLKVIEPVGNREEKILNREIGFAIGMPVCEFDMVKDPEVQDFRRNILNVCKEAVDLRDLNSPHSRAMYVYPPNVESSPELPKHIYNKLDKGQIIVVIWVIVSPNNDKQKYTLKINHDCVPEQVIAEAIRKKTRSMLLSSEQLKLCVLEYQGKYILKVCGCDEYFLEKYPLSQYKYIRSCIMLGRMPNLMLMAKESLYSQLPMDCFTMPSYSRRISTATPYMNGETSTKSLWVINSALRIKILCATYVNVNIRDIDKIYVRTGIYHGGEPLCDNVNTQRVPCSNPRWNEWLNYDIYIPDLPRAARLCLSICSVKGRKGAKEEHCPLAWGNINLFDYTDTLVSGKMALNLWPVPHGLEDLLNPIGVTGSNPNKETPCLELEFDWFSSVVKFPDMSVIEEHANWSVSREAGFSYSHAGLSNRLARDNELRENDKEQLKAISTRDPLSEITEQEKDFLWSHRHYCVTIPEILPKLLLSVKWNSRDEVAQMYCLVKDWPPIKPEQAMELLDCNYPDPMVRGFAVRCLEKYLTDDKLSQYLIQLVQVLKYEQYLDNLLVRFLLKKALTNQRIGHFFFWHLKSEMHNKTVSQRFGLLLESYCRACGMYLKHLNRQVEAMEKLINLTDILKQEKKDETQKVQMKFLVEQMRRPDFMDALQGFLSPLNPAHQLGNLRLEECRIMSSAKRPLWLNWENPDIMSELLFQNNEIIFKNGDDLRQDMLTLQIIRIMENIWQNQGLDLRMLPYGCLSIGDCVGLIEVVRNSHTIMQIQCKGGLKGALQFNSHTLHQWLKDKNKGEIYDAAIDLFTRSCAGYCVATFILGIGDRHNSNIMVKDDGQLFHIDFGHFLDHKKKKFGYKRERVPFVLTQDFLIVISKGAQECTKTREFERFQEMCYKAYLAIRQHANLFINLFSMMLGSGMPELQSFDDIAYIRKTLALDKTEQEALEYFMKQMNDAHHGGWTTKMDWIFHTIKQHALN
T1 sequence (P27986 whole entry partner): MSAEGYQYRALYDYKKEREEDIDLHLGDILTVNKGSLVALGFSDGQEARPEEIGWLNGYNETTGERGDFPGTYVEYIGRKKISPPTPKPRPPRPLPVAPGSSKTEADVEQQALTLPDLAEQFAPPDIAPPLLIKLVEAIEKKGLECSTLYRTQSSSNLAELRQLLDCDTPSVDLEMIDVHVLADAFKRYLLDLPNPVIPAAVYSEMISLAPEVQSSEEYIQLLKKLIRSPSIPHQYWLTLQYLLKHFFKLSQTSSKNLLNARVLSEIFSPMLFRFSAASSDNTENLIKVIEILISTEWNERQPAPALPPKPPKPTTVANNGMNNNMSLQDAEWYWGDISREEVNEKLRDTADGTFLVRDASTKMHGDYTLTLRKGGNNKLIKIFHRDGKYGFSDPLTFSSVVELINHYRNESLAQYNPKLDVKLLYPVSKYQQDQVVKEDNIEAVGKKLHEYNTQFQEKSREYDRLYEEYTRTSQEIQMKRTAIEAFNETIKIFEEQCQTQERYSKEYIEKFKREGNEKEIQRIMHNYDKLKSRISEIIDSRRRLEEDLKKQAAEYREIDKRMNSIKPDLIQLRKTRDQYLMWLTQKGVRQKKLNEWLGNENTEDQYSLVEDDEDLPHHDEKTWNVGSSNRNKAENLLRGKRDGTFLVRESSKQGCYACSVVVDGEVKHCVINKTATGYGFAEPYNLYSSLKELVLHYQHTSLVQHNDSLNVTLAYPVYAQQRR
T2 sequence (P42345 1360-2549): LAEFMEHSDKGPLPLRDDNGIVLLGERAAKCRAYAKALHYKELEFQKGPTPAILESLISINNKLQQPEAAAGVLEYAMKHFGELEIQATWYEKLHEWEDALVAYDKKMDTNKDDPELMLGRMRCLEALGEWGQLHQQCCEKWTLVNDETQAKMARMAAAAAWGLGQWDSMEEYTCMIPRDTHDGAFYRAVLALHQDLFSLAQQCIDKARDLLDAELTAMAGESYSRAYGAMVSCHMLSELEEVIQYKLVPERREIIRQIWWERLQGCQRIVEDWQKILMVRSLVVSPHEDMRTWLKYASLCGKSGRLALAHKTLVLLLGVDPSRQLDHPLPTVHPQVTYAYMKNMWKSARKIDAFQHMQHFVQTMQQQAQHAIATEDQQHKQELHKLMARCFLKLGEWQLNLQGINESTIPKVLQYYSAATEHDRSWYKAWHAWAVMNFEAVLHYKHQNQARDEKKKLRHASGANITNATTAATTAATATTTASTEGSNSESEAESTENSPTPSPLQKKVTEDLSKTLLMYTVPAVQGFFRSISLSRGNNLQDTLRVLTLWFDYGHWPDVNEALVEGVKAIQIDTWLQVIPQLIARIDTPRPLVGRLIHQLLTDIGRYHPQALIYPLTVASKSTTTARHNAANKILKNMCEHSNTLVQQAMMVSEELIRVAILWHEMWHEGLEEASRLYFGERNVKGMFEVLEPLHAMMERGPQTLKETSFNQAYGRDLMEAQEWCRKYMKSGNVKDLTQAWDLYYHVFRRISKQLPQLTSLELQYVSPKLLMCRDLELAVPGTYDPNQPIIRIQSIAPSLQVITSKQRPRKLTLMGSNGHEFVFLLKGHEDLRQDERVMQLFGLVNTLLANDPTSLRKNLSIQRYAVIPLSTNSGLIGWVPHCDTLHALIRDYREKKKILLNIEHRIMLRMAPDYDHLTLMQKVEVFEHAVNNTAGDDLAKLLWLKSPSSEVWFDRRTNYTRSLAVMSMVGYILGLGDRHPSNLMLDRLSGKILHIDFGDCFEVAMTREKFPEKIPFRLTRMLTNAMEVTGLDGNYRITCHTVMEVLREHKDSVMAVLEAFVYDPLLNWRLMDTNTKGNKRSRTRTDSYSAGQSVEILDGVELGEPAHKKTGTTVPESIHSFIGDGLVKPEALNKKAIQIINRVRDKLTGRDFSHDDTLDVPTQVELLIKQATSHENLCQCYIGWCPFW

Turning to `COc1ncc(-c2ccc3ncc(OCCN4CCC(F)(F)CC4)c(=O)n3c2)cc1NS(=O)(=O)c1sc(C)nc1C` [Compound 1, N-(5-(3-(2-(4,4-difluoro-1-piperidinyl)ethoxy)-4-oxo-pyrido[1,2-a]pyrimidin-7-yl]-2-methoxypyridin-3-yl]-2,4-dimethylthiazole-5-sulfonamide], the IC50 was at most 50 nM in assay [1], at most 1 nM in assay [2] and 50 to 200 nM in assay [3].
For the compound `COc1ncc(-c2ccc3ncc(OCCN4CCC(F)CC4)c(=O)n3c2)cc1NS(=O)(=O)c1sc(C)nc1C` [Compound 2], the IC50 in assay [1] was at most 50 nM; in assay [2], at most 1 nM; in assay [3], 50 to 200 nM.
Turning to `COc1ncc(-c2ccc3ncc(OCCN4CCNCC4)c(=O)n3c2)cc1NS(=O)(=O)c1sc(C)nc1C` [Compound 3], the IC50 is above 250 nM in assay [1], at most 1 nM in assay [2] and above 200 nM in assay [3].
For the compound `CNCCOc1cnc2ccc(-c3cnc(OC)c(NS(=O)(=O)c4sc(C)nc4C)c3)cn2c1=O` [Compound 6], the results for the IC50 in assay [2] and in assay [3] were at most 1 nM and above 200 nM, respectively.
As for `COc1ncc(-c2ccc3ncc(OCCN4CCOCC4)c(=O)n3c2)cc1NS(=O)(=O)c1ccc(C)cc1C` [Compound 7, 2,4-Dimethyl-N-(2-methoxy-5-(3-(2-morpholinoethoxy)-4-oxo-4H-pyrido[1,2-a]pyrimidin-4-one-7-yl)pyridin-3-yl)benzenesulfonamide], the values for the IC50 in assay [1], in assay [2] and in assay [3] were at most 50 nM, at most 1 nM and above 200 nM, respectively.
For `COc1ncc(-c2ccc3ncc(OCCN4CCOCC4)c(=O)n3c2)cc1NS(=O)(=O)c1ccc(F)cc1C` [Compound 8] the same measures were 50 to 100 nM, at most 1 nM and above 200 nM.
As for `COc1ncc(-c2ccc3ncc(OCCN4CCOCC4)c(=O)n3c2)cc1NS(=O)(=O)c1ccc(F)cc1F` [Compound 13], the IC50 in assay [2] was at most 1 nM; in assay [3] it was above 200 nM.
Regarding `COc1ncc(-c2ccc3ncc(OCCN(C)C)c(=O)n3c2)cc1NS(=O)(=O)c1ccc(F)cc1Cl` [Compound 25], the results for the IC50 in assay [1], in assay [3] and in assay [4] were at most 50 nM, above 200 nM and at most 1 nM, respectively.
Turning to `COc1ncc(-c2ccc3ncc(OCCN4CCCC4)c(=O)n3c2)cc1NS(=O)(=O)c1ccc(F)cc1Cl` [Compound 27], the IC50 was 50 to 100 nM in assay [1], 50 to 200 nM in assay [3] and at most 1 nM in assay [4].
Regarding `COc1ncc(-c2ccc3ncc(OCC4(N)CC4)c(=O)n3c2)cc1NS(=O)(=O)c1ccc(F)cc1Cl` [Compound 32], the IC50 in assay [1] is 50 to 100 nM; in assay [3] it was 50 to 200 nM; in assay [4], at most 1 nM.
As for `COc1ncc(-c2ccc3ncc(OC4CCNCC4)c(=O)n3c2)cc1NS(=O)(=O)c1ccc(F)cc1F` [Compound 41, 2,4-Difluoro-N-(2-methoxy-5-(4-oxo-3-(piperidin-4-yloxy)-4H-pyrido[1,2-a]pyrimidin-7-yl)pyridin-3-yl)benzenesulfonamide], the IC50 in assay [2] is 1 to 50 nM; in assay [3], above 200 nM.
As for `COc1ncc(-c2ccc3ncc(OC4CCNC4)c(=O)n3c2)cc1NS(=O)(=O)c1ccc(F)cc1F` (centres unmarked) [Compound 44], the IC50 in assay [2] is at most 1 nM; in assay [3], above 200 nM.
As for `COc1ncc(-c2ccc3ncc(OCC(C)(C)N4CCOCC4)c(=O)n3c2)cc1NS(=O)(=O)c1ccc(F)cc1Cl` [Compound 70], the IC50 in assay [1] fell in the range of 100 to 250 nM; in assay [4] it was 1 to 50 nM.
With `COc1ncc(-c2ccc3ncc(OCCN4CCNCC4)c(=O)n3c2)cc1NS(=O)(=O)c1ccc(F)cc1Cl` [Compound 75], the IC50 in assay [1] is above 250 nM; in assay [4], at most 1 nM.
For `COc1ncc(-c2ccc3ncc(OCC4CCNC4)c(=O)n3c2)cc1NS(=O)(=O)c1ccc(F)cc1Cl` (centres unmarked) [Compound 77] the same measures were above 250 nM and 1 to 50 nM.
For `COc1ncc(-c2ccc3ncc(OCC4CCCN4)c(=O)n3c2)cc1NS(=O)(=O)c1ccc(F)cc1Cl` (centres unmarked) [Compound 78] the same measures were above 250 nM and 1 to 50 nM.
The like results for `COc1ncc(-c2ccc3ncc(OCCN4CCC(O)CC4)c(=O)n3c2)cc1NS(=O)(=O)c1ccc(F)cc1Cl` [Compound 79] were, in that order, 100 to 250 nM and at most 1 nM.
`COc1ncc(-c2ccc3ncc(OCCNCCO)c(=O)n3c2)cc1NS(=O)(=O)c1ccc(F)cc1Cl` [Compound 81]: the IC50 in assay [1] was above 250 nM; in assay [4], at most 1 nM.
The like results for `COc1ncc(-c2ccc3ncc(OCCN4CCC(C)(O)CC4)c(=O)n3c2)cc1NS(=O)(=O)c1ccc(F)cc1Cl` [Compound 82] were, in that order, 100 to 250 nM and at most 1 nM.
For `COc1ncc(-c2ccc3ncc(OC4CCN(C)C4)c(=O)n3c2)cc1NS(=O)(=O)c1ccc(F)cc1Cl` (centres unmarked) [Compound 85] the same measures were 50 to 100 nM and 1 to 50 nM.
The like results for `COc1ncc(-c2ccc3ncc(OCCN4CCOCC4C)c(=O)n3c2)cc1NS(=O)(=O)c1ccc(F)cc1Cl` (centres unmarked) [Compound 88] were, in that order, 50 to 100 nM and at most 1 nM.
Regarding `COc1ncc(-c2ccc3ncc(OCCN4CCOC(C)C4)c(=O)n3c2)cc1NS(=O)(=O)c1ccc(F)cc1Cl` (centres unmarked) [Compound 89], the IC50 in assay [1] is at most 50 nM; in assay [4], at most 1 nM.
For the compound `COc1ncc(-c2ccc3ncc(OCCN4CCN(C(C)=O)CC4)c(=O)n3c2)cc1NS(=O)(=O)c1ccc(F)cc1Cl` [Compound 90], the IC50 in assay [1] is 50 to 100 nM; in assay [4] it was at most 1 nM.
The like results for `COCCN(CCOc1cnc2ccc(-c3cnc(OC)c(NS(=O)(=O)c4ccc(F)cc4Cl)c3)cn2c1=O)CC(F)(F)F` [Compound 95] were, in that order, at most 50 nM and 1 to 50 nM.
